According to PMC6709224, “PIM-Related Kinases Selectively Regulate Olfactory Sensations in Caenorhabditis elegans” (eNeuro, 2019):

What was measured:
Format in all cases: biochemical
PIM-1 [1] = target: T1, PIM-1 (Homo sapiens, UniProt P11309); test: radioactive in vitro kinase assay (autophosphorylation and NFATC1 […]-418 phosphorylation); conditions: 10 µM inhibitor, 10-20 min pre-incubation, gamma-32P-ATP, 0.1% DMSO control
T1 construct: gene PIM1; full-length short isoform (313 residues, recalled), GST fusion expressed in bacteria
T1 sequence (P11309 whole entry, the tested form may be a part, canonical isoform): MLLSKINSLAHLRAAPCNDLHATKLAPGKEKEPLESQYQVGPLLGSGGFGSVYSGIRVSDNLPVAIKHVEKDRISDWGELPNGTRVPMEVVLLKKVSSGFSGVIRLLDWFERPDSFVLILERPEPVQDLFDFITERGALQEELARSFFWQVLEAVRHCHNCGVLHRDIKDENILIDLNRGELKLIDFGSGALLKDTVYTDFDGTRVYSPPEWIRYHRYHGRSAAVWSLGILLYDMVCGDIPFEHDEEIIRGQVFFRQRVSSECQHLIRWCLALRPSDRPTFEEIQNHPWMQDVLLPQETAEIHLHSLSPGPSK

PRK-2 [2] = target: T2, PRK-2 (Caenorhabditis elegans, UniProt Q20443); test: as above; conditions: 10 µM inhibitor, 10-20 min pre-incubation, gamma-32P-ATP, 0.1% DMSO control
T2 construct: full-length, GST fusion in pGEX-6P-2, expressed in bacteria
T2 sequence (Q20443 1-441): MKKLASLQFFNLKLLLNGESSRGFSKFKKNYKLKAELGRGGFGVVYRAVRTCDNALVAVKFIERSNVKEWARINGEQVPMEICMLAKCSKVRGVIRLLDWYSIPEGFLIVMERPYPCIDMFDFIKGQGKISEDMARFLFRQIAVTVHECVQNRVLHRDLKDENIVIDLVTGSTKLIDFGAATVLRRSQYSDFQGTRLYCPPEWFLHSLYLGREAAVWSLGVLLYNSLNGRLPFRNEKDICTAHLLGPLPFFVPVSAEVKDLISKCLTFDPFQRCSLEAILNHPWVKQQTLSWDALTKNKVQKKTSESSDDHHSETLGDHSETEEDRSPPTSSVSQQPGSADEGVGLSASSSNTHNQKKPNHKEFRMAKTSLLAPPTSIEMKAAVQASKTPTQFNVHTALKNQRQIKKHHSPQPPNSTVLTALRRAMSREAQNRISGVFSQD

PRK-2 [3] = target: T2, PRK-2; test: radioactive in vitro kinase assay, autoradiography; conditions: labelled compound; autophosphorylation and GST-NFATC1 (1-418) as acceptor
PIM-1 [4] = target: T1, PIM-1; test: radioactive in vitro kinase assay, autoradiography; conditions: labelled compound; autophosphorylation and GST-NFATC1 (1-418) as acceptor

| SMILES | relative phosphorylation at 10 μM (PIM-1 [1]) | relative phosphorylation at 10 μM (PRK-2 [2]) | radioactive in vitro kinase assay, autoradiography (PRK-2 [3]) | radioactive in vitro kinase assay, autoradiography (PIM-1 [4]) |
| --- | --- | --- | --- | --- |
| O=Cc1c[nH]c2c1ccc1c3ccccc3[nH]c12 [DHPCC-9] | DHPCC-9 was able to inhibit autophosphorylation of not only PIM-1, but also PRK-2 | DHPCC-9 was able to inhibit autophosphorylation of not only PIM-1, but also PRK-2 | – | – |
| Nc1ncnc2c1ncn2[C@@H]1O[C@H](COP(=O)(O)OP(=O)(O)OP(=O)(O)O)[C@@H](O)[C@H]1O [γ-32P-ATP] | – | – | both PIM-1 and PRK-2 were able to autophosphorylate themselves | both PIM-1 and PRK-2 were able to autophosphorylate themselves |
